Results taken from patent publication US10961264B2, “Process for isolating a (thio)phosphoric acid derivative” (BASF SE, priority 2015, dated 2021).

Legend:
[1] = Solubility of the (thio)phosphoric acid derivative in process solvents; assay type: physicochemical
[2] = as described in U.S. Pat. No. 8,513,460 B1; cited from earlier work

| SMILES | solubility in dichloromethane ([1]; dichloromethane, even at higher temperatures of 30° C. to 80° C.) | dissolution in dichloromethane in amounts comparable to NBPT ([1]; dichloromethane, same conditions as NBPT) | dissolution in ethyl acetate ([1]; ethyl acetate, upon moderate heating, precipitates again on cooling to room temperature) | solubility in aromatic solvents such as toluene ([1]; toluene, even at higher temperatures of 30° C. to 80° C.) | dissolution in toluene in amounts comparable to NBPT ([1]; toluene, same conditions as NBPT) | solubility in toluene ([1]; toluene, upon heating the product mixture (work-up of U.S. Pat. No. 8,513,460 B1)) | dissolution in toluene [2] |
| --- | --- | --- | --- | --- | --- | --- | --- |
| CCCNP(N)(N)=S [NPPT, N-(n-propyl)thiophosphoric acid triamide] | poor solubility | not possible to dissolve | can be dissolved to a large extent | poor solubility | not possible to dissolve | not sufficiently soluble | – |
| CCCCNP(N)(N)=S [NBPT, N-(n-butyl)thiophosphoric acid triamide] | – | – | – | – | – | – | can be dissolved |
